The text below walks through data of patent US20060252930A1 (priority 2003, published 2006).

Several values for one entry are separate records, joined by “and”; a condition that tells them apart may be missing. Identical values can stand only once. Like-named read-outs stand apart in the source and are kept apart here.

Data set [1] has as its system Aspergillus niger ATCC 6275. Description: Enhancing activity of azole antifungal agent, susceptibility test for conidiogenous fungi NCCLS M38-P (Alamar Blue). The format is cell-based. To be noted: for enhancing action of the activity of azole antifungal agent (in words): Aspergillus niger ATCC 6275, summary statement. Here is the method:
(§1) Candida albicans ATCC 64548, fluconazole resistant Candida albicans ATCC 64550 and Aspergillus niger ATCC 6275 were used as test organisms.
Enhancing activity of azole antifungal agent on Aspergillus niger ATCC 6275 was determined by the drug susceptibility test method for conidiogenous fungi proposed by NCCLS (M38-P). Spores of the strain of Aspergillus niger ATCC 6275 were suspended in the physiological saline to maintain a value at OD 530 nm being 0.09-0.11. The suspension was further diluted 100 times with PRMI1640 medium to prepare inoculating microorganism solution. […] Further, FKI-1366 substance A, FKI-1366 substance B or FKI-1366 substance C, 10 μl, each of which was prepared for maintaining the final concentration of 2.5, 5.0 and 10 μg/ml, was added. Finally, the test microorganism suspension 80 μl was added. Alamar Blue solution (Asahi Glass Co., Japan) 20 μl, a coloring reagent, was added thereto and incubated at 35° C. for 24 hours. […] When IC50 value without addition of FKI-1366 substance A, FKI-1366 substance B or FKI-1366 substance C was set as 1.0, a ratio of IC50 with addition of FKI-1366 substance A, FKI-1366 substance B or FKI-1366 substance C was determined as the enhancing activity.
Background: Resazurin is reduced to fluorescent resorufin, in cell work by metabolically active cells.

The next data set is described as follows: Solubility in solvents. The format is physicochemical.
The test system of data set [2] is Candida albicans ATCC 64548. Description: Enhancing activity of azole antifungal agent, yeast susceptibility test NCCLS M27-A. The format is cell-based. The settings on record: for enhancing action of the activity of azole antifungal agent (in words): C. albicans ATCC64548, summary statement; for Ratio (enhancing activity): IC50 without addition set as 1.0. Here is the method: as §1
(§2) Enhancing activity of azole antifungal agent on Candida albicans ATCC 64548 and ATCC 64550 was determined by yeast susceptibility test method, National Committee for Clinical Standard (NCCLS) Standard Method M27-A. Each suspension of inoculating strain was spread over YM agar medium (0.5% yeast extract, 0.5% malt extract, 0.5% peptone, 1% glucose and 1.5% agar) and cultured at 35° C. for 36 hours. Five grown colonies with a diameter 1 mm or more were collected and the colonies were suspended in physiological saline 5 ml. The suspension was further diluted with physiological saline to prepare the test microorganism suspension having McFarland transmittance 0.5. RPMI 1640 medium 70 μl was added into 96 well plastic plate (Corning Inc., U.S.). […] Finally, the test microorganism suspension 100 μl was added and incubated at 35° C. for 24 hours. […] When IC50 value without addition of FKI-1366 substance A, FKI-1366 substance B or FKI-1366 substance C was set as 1.0, a ratio of IC50 with addition of FKI-1366 substance A, FKI-1366 substance B or FKI-1366 substance C was determined as the enhancing activity.

In data set [3] the test system is fluconazole resistant Candida albicans ATCC 64550. The format is cell-based. The settings on record: for Ratio (enhancing activity): IC50 without addition set as 1.0; for enhancing action of the activity of azole antifungal agent (in words): fluconazole resistant C. albicans ATCC64550, summary statement. Here is the method: as §1, §2
Where [4] appears, read: Table 1, miconazole + FKI-1366 substance 2.5 μg/ml, IC50 without addition set as 1.0.
Setting [5] is: Table 1, miconazole + FKI-1366 substance 5.0 μg/ml, IC50 without addition set as 1.0.
Where [6] appears, read: Table 1, miconazole + FKI-1366 substance 10 μg/ml, IC50 without addition set as 1.0.
Setting [7] is: Table 2 (fluconazole) + FKI-1366 substance 2.5 μg/ml, IC50 without addition set as 1.0.
Setting [8] is: Table 2 (fluconazole) + FKI-1366 substance 5.0 μg/ml, IC50 without addition set as 1.0.
Setting [9] is: Table 2 (fluconazole) + FKI-1366 substance 10 μg/ml, IC50 without addition set as 1.0.
Setting [10] is: DMSO, methanol, chloroform and ethyl acetate.
Where [11] appears, read: Table 1, miconazole + FKI-1366 substance 0.5 μg/ml.
[12] abbreviates: Table 1, miconazole + FKI-1366 substance 1.0 μg/ml.
The mark [13] stands for this setting: Table 1, miconazole + FKI-1366 substance 2.0 μg/ml.
Setting [14] is: Table 2 (fluconazole) + FKI-1366 substance 0.5 μg/ml.
The mark [15] stands for this setting: Table 2 (fluconazole) + FKI-1366 substance 1.0 μg/ml.
Where [16] appears, read: Table 2 (fluconazole) + FKI-1366 substance 2.0 μg/ml.

`CC(C)C1OC(=O)C(Cc2ccccc2)N(C)C(=O)C(C(C)C)OC(=O)C(Cc2ccccc2)N(C)C(=O)C(C(C)C)OC(=O)C(Cc2ccccc2)NC1=O` (stereo not shown) [FKI-1366 substance A]: the “enhancing action of the activity of azole antifungal agent (in words)” value (“enhancing action of the activity … (in words)” below) in data set [1], in data set [2] and in data set [3] was “enhancing action” each time. For the same compound, the “Ratio (enhancing activity)” value turned out to be 5.5 in data set [1] (setting [4]); 9.6 in data set [1] (setting [5]); 10.9 in data set [1] (setting [6]); 5.5 in data set [1] (setting [7]); 9.6 in data set [1] (setting [8]); 10.9 in data set [1] (setting [9]). For the same compound, the “Ratio (enhancing activity)” value is listed as 1.0 in data set [2] (setting [11]); 1.4 in data set [2] (setting [12]); more than 55 in data set [2] (setting [13]); 1.0 in data set [2] (setting [14]); 1.4 in data set [2] (setting [15]); more than 55 in data set [2] (setting [16]). Moreover, the “Ratio (enhancing activity)” value in data set [3] (setting [11]) was 1.2; in data set [3] (setting [12]), 5.0; in data set [3] (setting [13]), more than 60; in data set [3] (setting [14]) it was 1.2; in data set [3] (setting [15]), 5.0; in data set [3] (setting [16]), more than 60. For the same compound, the Solubility in solvents entry is on record as “Soluble” in the data set “Solubility in solvents” (setting [10]); “Slightly soluble” in the data set “Solubility in solvents” (water and n-hexane).
As to `CC(C)CC1NC(=O)C(C(C)C)OC(=O)C(Cc2ccccc2)N(C)C(=O)C(C(C)C)OC(=O)C(Cc2ccccc2)N(C)C(=O)C(C(C)C)OC1=O` (stereo not shown) [FKI-1366 substance B], the “Ratio (enhancing activity)” value is 1.8 and 2.4 and 3.5 in data set [1]; 1.8 in data set [1] (setting [4]); 2.4 in data set [1] (setting [5]); 3.5 in data set [1] (setting [6]); 1.7 in data set [2] (setting [11]); 6.0 in data set [2] (setting [12]). Also, the “Ratio (enhancing activity)” value in data set [2] (setting [13]) was more than 55; in data set [3] (setting [11]), 1.4; in data set [3] (setting [12]) it was 4.2; in data set [3] (setting [13]), more than 60; in data set [3] (setting [14]), 1.4; in data set [3] (setting [15]), 4.2. Also, the “Ratio (enhancing activity)” value in data set [3] (setting [16]) was more than 60. Besides, the “enhancing action of the activity … (in words)” value in data set [1], in data set [2] and in data set [3] was “enhancing action” in each case. The Solubility in solvents result in the data set “Solubility in solvents” (setting [10]) is “Soluble”; in the data set “Solubility in solvents” (water and n-hexane), “Slightly soluble”.
As to `CC(C)CC1OC(=O)C(Cc2ccccc2)N(C)C(=O)C(C(C)C)OC(=O)C(Cc2ccccc2)N(C)C(=O)C(C(C)C)OC(=O)C(Cc2ccccc2)N(C)C1=O` (stereo not shown) [FKI-1366 substance C], the “enhancing action of the activity … (in words)” value in data set [1], in data set [2] and in data set [3] was “enhancing action” throughout. Also, the “Ratio (enhancing activity)” value in data set [1] (setting [4]) is listed as 5.2; in data set [1] (setting [5]), 8.0; in data set [1] (setting [6]) it was 11.0; in data set [1] (setting [7]), 5.2; in data set [1] (setting [8]), 8.0; in data set [1] (setting [9]) it was 11.0. For the same compound, the “Ratio (enhancing activity)” value in data set [2] (setting [11]) is 1.0; in data set [2] (setting [12]), 2.5; in data set [2] (setting [13]) it was more than 55; in data set [2] (setting [14]), 1.0; in data set [2] (setting [15]), 2.5; in data set [2] (setting [16]), more than 55. In addition, the “Ratio (enhancing activity)” value in data set [3] (setting [11]) was determined as 1.0; in data set [3] (setting [12]), 1.1; in data set [3] (setting [13]) it was 3.9; in data set [3] (setting [14]) it was 1.0; in data set [3] (setting [15]) it was 1.1; in data set [3] (setting [16]) it was 3.9. Besides, the Solubility in solvents entry in “Solubility in solvents” (setting [10]) is “Soluble”; in the data set “Solubility in solvents” (water and n-hexane) it was “Slightly soluble”.
